Key:
[1] = tested on: Setaria viridis (L.) Beauv.; assay: Herbicidal effect by upland field soil treatment; format: in vivo; design: scale not given here; conditions: active ingredient 1000 g/ha, examined at 21st day from treatment
Source text: (§1) An upland field soil was filled in a plastic pot of 80 cm^2. Seeds of Echinochloa crus-galli (L.) Beauv. var. crusgalli and Setaria viridis (L.) Beauv. were sowed, followed by covering with the same soil. […] Then, breeding was made in a greenhouse, and the herbicidal effect of each wettable powder was examined at the 21st day from the treatment in accordance with the standard shown in Table 21.

[2] = tested on: Echinochloa crus-galli (L.) Beauv. var. crusgalli; assay: Herbicidal effect by upland field soil treatment; format: in vivo; design: scale not given here; conditions: active ingredient 1000 g/ha, examined at 21st day from treatment
Source text: as §1

[3] = tested on: Monochoria vaginalis (Murm. f.) Presl var. plantaginea (Roxb.) Solms-Laub.; assay: Herbicidal effect by paddy field soil treatment; format: in vivo; design: scale not given here; conditions: wettable powder, active ingredient 1000 g/ha, examined at the 21st day from the treatment
Summary of the method: (§2)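 Seeds sown in puddled paddy soil under 3 cm of water; the next day wettable powders diluted in water were dropped onto the water surface at 1,000 g active ingredient/ha. Plants grown in a greenhouse, with herbicidal effect scored on day 21 against a rating standard.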

[4] = tested on: Echinochloa oryzicola Vasing; assay: Herbicidal effect by paddy field soil treatment; format: in vivo; design: scale not given here; conditions: wettable powder, active ingredient 1000 g/ha, examined at the 21st day from the treatment
Summary of the method: as §2

[5] = tested on: Echinochloa crus-galli (L.) Beauv. var. crus-galli; assay: Herbicidal effect by upland foliage treatment; format: in vivo; design: scale not given here; conditions: active ingredient 1000 g/ha, examined at 14th day from treatment
Summary of the method: (§3)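 Two-week-old greenhouse plants in sand were sprayed over the whole foliage with water-diluted wettable powder at 1,000 liters per hectare, giving 1,000 g active ingredient per hectare. Herbicidal effect scored on a rating standard at day 14 after treatment.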

[6] = tested on: Setaria viridis (L.) Beauv.; assay: Herbicidal effect by upland foliage treatment; format: in vivo; design: scale not given here; conditions: active ingredient 1000 g/ha, examined at 14th day from treatment
Summary of the method: as §3

Structure (SMILES): CC1(C)CC(SCc2c(C(F)(F)F)nn(-c3ccccc3)c2Cl)=NO1 [3-0001, 3-(5-chloro-1-phenyl-3-trifluoromethyl-1H-pyrazol-4-ylmethylthio)-5,5-dimethyl-2-isoxazoline]
- melting point: 89 to 90 °C

Structure (SMILES): CC1(C)CC(S(=O)(=O)Cc2c(C(F)(F)F)nn(-c3ccccc3)c2Cl)=NO1 [3-0002, 3-(5-chloro-1-phenyl-3-trifluoromethyl-1H-pyrazol-4-ylmethylsulfonyl)-5,5-dimethyl-2-isoxazoline]
- herbicidal effect (index per standard of Table 21), Setaria viridis (L.) Beauv. [1]: 5
- herbicidal effect (index per standard of Table 21), Echinochloa curs-galli (L.) Beauv. Var. crus-galli [2]: 5
- Herbicidal effect index, Monochoria vaginalis (Burm. F.) Presl var. plantaginea (Roxb.) Solms-Laub. [3]: 5
- Herbicidal effect index, Echinochloa oryzicola Vasing [4]: 5
- melting point: 132 to 133 °C

Structure (SMILES): CCS(=O)(=O)c1c(CS(=O)(=O)C2=NOC(C)(C)C2)c(C(F)(F)F)nn1-c1ccccc1 [3-0004, 5,5-dimethyl-3-(5-ethylsulfonyl-1-phenyl-3-trifluoromethyl-1H-pyrazol-4-ylmethylsulfonyl)-2-isoxazoline]
- herbicidal effect (index per standard of Table 21), Setaria viridis (L.) Beauv. [1]: 5
- herbicidal effect (index per standard of Table 21), Echinochloa curs-galli (L.) Beauv. Var. crus-galli [2]: 5
- Herbicidal effect index, Monochoria vaginalis (Burm. F.) Presl var. plantaginea (Roxb.) Solms-Laub. [3]: 5
- Herbicidal effect index, Echinochloa oryzicola Vasing [4]: 5
- melting point: 158 to 160 °C

Structure (SMILES): CN(C)c1c(CS(=O)(=O)C2=NOC(C)(C)C2)c(C(F)(F)F)nn1-c1ccccc1 [3-0005, 5,5-dimethyl-3-(5-dimethylamino-1-phenyl-3-trifluoromethyl-1H-pyrazol-4-ylmethylsulfonyl)-2-isoxazoline]
- melting point: 150 to 151 °C

Structure (SMILES): CC1(C)CC(SCc2c(C(F)(F)F)nn(C(C)(C)C)c2Cl)=NO1 [3-0006, 3-(1-tert-butyl-5-chloro-3-trifluoromethyl-1H-pyrazol-4-ylmethylthio)-5,5-dimethyl-2-isoxazoline]
- herbicidal effect (index per standard of Table 21), Setaria viridis (L.) Beauv. [1]: 4
- herbicidal effect (index per standard of Table 21), Echinochloa curs-galli (L.) Beauv. Var. crus-galli [2]: 4
- melting point: 79 to 81 °C

Structure (SMILES): CC1(C)CC(SCc2c(C(F)(F)F)n[nH]c2Cl)=NO1 [3-0007, 3-(5-chloro-3-trifluoromethyl-1H-pyrazol-4-ylmethylthio)-5,5-dimethyl-2-isoxazoline]
- melting point: 120 to 122 °C

Structure (SMILES): CC1(C)CC(SCc2c(Cl)nn(C(F)F)c2C(F)(F)F)=NO1 [3-0009, 3-(3-chloro-1-difluoromethyl-5-trifluoromethyl-1H-pyrazol-4-ylmethylthio)-5,5-dimethyl-2-isoxazoline]
- herbicidal effect (index per standard of Table 21), Setaria viridis (L.) Beauv. [1]: 5
- herbicidal effect (index per standard of Table 21), Echinochloa curs-galli (L.) Beauv. Var. crus-galli [2]: 5
- Herbicidal effect index, Monochoria vaginalis (Burm. F.) Presl var. plantaginea (Roxb.) Solms-Laub. [3]: 5
- Herbicidal effect index, Echinochloa oryzicola Vasing [4]: 5
- melting point: 89 to 90 °C

Structure (SMILES): CCOc1nn(C)c(C(F)(F)F)c1CS(=O)(=O)C1=NOC(C)(C)C1 [3-0012, 5,5-dimethyl-3-(3-ethoxy-1-methyl-5-trifluoromethyl-1H-pyrazol-4-ylmethylsulfonyl)-2-isoxazoline]
- herbicidal effect (index per standard of Table 21), Setaria viridis (L.) Beauv. [1]: 5
- herbicidal effect (index per standard of Table 21), Echinochloa curs-galli (L.) Beauv. Var. crus-galli [2]: 5
- melting point: 124 to 125 °C

Structure (SMILES): Cn1nc(C(F)(F)F)c(CS(=O)(=O)C2=NOC(C)(C)C2)c1Oc1ccccc1Cl [3-0014, 3-(5-(2-chlorophenoxy)-1-methyl-3-trifluoromethyl-1H-pyrazol-4-ylmethylsulfonyl)-5,5-dimethyl-2-isoxazoline]
- Herbicidal effect index, Monochoria vaginalis (Burm. F.) Presl var. plantaginea (Roxb.) Solms-Laub. [3]: 5
- Herbicidal effect index, Echinochloa oryzicola Vasing [4]: 5
- melting point: 67 to 70 °C

Structure (SMILES): Cn1nc(C(F)(F)F)c(CS(=O)(=O)C2=NOC(C)(C)C2)c1C#N [3-0016, 3-(5-cyano-1-methyl-3-trifluoromethyl-1H-pyrazol-4-ylmethylsulfonyl)-5,5-dimethyl-2-isoxazoline]
- herbicidal effect (index per standard of Table 21), Setaria viridis (L.) Beauv. [1]: 5
- herbicidal effect (index per standard of Table 21), Echinochloa curs-galli (L.) Beauv. Var. crus-galli [2]: 5
- Herbicidal effect index, Monochoria vaginalis (Burm. F.) Presl var. plantaginea (Roxb.) Solms-Laub. [3]: 5
- Herbicidal effect index, Echinochloa oryzicola Vasing [4]: 5
- melting point: 105 to 108 °C

Structure (SMILES): CCn1nc(Cl)c(CS(=O)(=O)C2=NOC(C)(C)C2)c1Cl [3-0017, 3-(3,5-dichloro-1-ethyl-1H-pyrazol-4-ylmethylsulfonyl)-5,5-dimethyl-2-isoxazoline]
- herbicidal effect (index per standard of Table 21), Setaria viridis (L.) Beauv. [1]: 5
- herbicidal effect (index per standard of Table 21), Echinochloa curs-galli (L.) Beauv. Var. crus-galli [2]: 5
- melting point: 105 to 107 °C

Structure (SMILES): Cn1nc(C(F)F)c(CS(=O)(=O)C2=NOC(C)(C)C2)c1Cl [3-0018, 3-(5-chloro-3-difluoromethyl-1-methyl-1H-pyrazol-4-ylmethylsulfonyl)-5,5-dimethyl-2-isoxazoline]
- herbicidal effect (index per standard of Table 21), Setaria viridis (L.) Beauv. [1]: 5
- herbicidal effect (index per standard of Table 21), Echinochloa curs-galli (L.) Beauv. Var. crus-galli [2]: 5
- melting point: 78 to 79 °C

Structure (SMILES): CC1(C)CC(S(=O)(=O)Cc2c(C(F)(F)F)nn3c2OCCC3)=NO1 [3-0019, 3-(5,5-dimethyl-2-isoxazolin-3-ylsulfonylmethyl)-2-trifluoromethyl-6,7-dihydro-5H-pyrazolo[5,1-b][1,3]oxazine]
- herbicidal effect (index per standard of Table 21), Setaria viridis (L.) Beauv. [1]: 5
- herbicidal effect (index per standard of Table 21), Echinochloa curs-galli (L.) Beauv. Var. crus-galli [2]: 5
- melting point: 151 to 152 °C

Structure (SMILES): Cn1ncc(C(F)(F)F)c1CS(=O)(=O)C1=NOC(C)(C)C1 [5-0003]
- herbicidal effect (index per standard of Table 21), Echinochloa curs-galli (L.) Beauv. Var. crus-galli [5]: 5
- herbicidal effect (index per standard of Table 21), Setaria viridis (L.) Beauv. [6]: 4
- herbicidal effect (index per standard of Table 21), Setaria viridis (L.) Beauv. [1]: 5
- herbicidal effect (index per standard of Table 21), Echinochloa curs-galli (L.) Beauv. Var. crus-galli [2]: 5
- Herbicidal effect index, Monochoria vaginalis (Burm. F.) Presl var. plantaginea (Roxb.) Solms-Laub. [3]: 5
- Herbicidal effect index, Echinochloa oryzicola Vasing [4]: 5

Structure (SMILES): CC1(C)CC(S(=O)(=O)Cc2c(C(F)(F)F)cnn2-c2ccccc2)=NO1 [5-0007]
- herbicidal effect (index per standard of Table 21), Echinochloa curs-galli (L.) Beauv. Var. crus-galli [5]: 5
- herbicidal effect (index per standard of Table 21), Setaria viridis (L.) Beauv. [6]: 5
- herbicidal effect (index per standard of Table 21), Setaria viridis (L.) Beauv. [1]: 5
- herbicidal effect (index per standard of Table 21), Echinochloa curs-galli (L.) Beauv. Var. crus-galli [2]: 5
- Herbicidal effect index, Monochoria vaginalis (Burm. F.) Presl var. plantaginea (Roxb.) Solms-Laub. [3]: 5
- Herbicidal effect index, Echinochloa oryzicola Vasing [4]: 5

Structure (SMILES): Cc1cc(CS(=O)(=O)C2=NOC(C)(C)C2)no1 [6-0004]
- herbicidal effect (index per standard of Table 21), Echinochloa curs-galli (L.) Beauv. Var. crus-galli [5]: 5
- herbicidal effect (index per standard of Table 21), Setaria viridis (L.) Beauv. [6]: 4
- herbicidal effect (index per standard of Table 21), Setaria viridis (L.) Beauv. [1]: 5
- herbicidal effect (index per standard of Table 21), Echinochloa curs-galli (L.) Beauv. Var. crus-galli [2]: 5
- Herbicidal effect index, Monochoria vaginalis (Burm. F.) Presl var. plantaginea (Roxb.) Solms-Laub. [3]: 5
- Herbicidal effect index, Echinochloa oryzicola Vasing [4]: 5

Structure (SMILES): CC1(C)CC(S(=O)(=O)Cc2cnccc2C(F)(F)F)=NO1 [7-0001, 5,5-dimethyl-3-(4-trifluoromethyl-pyridin-3-ylmethylsulfonyl)-2-isoxazoline]
- melting point: 77 to 80 °C

Structure (SMILES): Cc1cc[n+]([O-])c(Cl)c1CS(=O)(=O)C1=NOC(C)(C)C1 [7-0008]
- herbicidal effect (index per standard of Table 21), Echinochloa curs-galli (L.) Beauv. Var. crus-galli [5]: 5
- herbicidal effect (index per standard of Table 21), Setaria viridis (L.) Beauv. [6]: 5
- herbicidal effect (index per standard of Table 21), Setaria viridis (L.) Beauv. [1]: 5
- herbicidal effect (index per standard of Table 21), Echinochloa curs-galli (L.) Beauv. Var. crus-galli [2]: 5
- Herbicidal effect index, Monochoria vaginalis (Burm. F.) Presl var. plantaginea (Roxb.) Solms-Laub. [3]: 5
- Herbicidal effect index, Echinochloa oryzicola Vasing [4]: 5

Structure (SMILES): COc1c(CS(=O)(=O)C2=NOC(C)(C)C2)c(C)cc[n+]1[O-] [7-0009]
- herbicidal effect (index per standard of Table 21), Echinochloa curs-galli (L.) Beauv. Var. crus-galli [5]: 4
- herbicidal effect (index per standard of Table 21), Setaria viridis (L.) Beauv. [6]: 4
- herbicidal effect (index per standard of Table 21), Setaria viridis (L.) Beauv. [1]: 5
- herbicidal effect (index per standard of Table 21), Echinochloa curs-galli (L.) Beauv. Var. crus-galli [2]: 5
- Herbicidal effect index, Monochoria vaginalis (Burm. F.) Presl var. plantaginea (Roxb.) Solms-Laub. [3]: 5
- Herbicidal effect index, Echinochloa oryzicola Vasing [4]: 5

Structure (SMILES): CC1(C)CC(S(=O)(=O)Cc2ccccn2)=NO1 [9-0001]
- herbicidal effect (index per standard of Table 21), Echinochloa curs-galli (L.) Beauv. Var. crus-galli [5]: 4
- herbicidal effect (index per standard of Table 21), Setaria viridis (L.) Beauv. [6]: 4
- herbicidal effect (index per standard of Table 21), Setaria viridis (L.) Beauv. [1]: 5
- herbicidal effect (index per standard of Table 21), Echinochloa curs-galli (L.) Beauv. Var. crus-galli [2]: 5
- Herbicidal effect index, Monochoria vaginalis (Burm. F.) Presl var. plantaginea (Roxb.) Solms-Laub. [3]: 5
- Herbicidal effect index, Echinochloa oryzicola Vasing [4]: 5

Structure (SMILES): CC1(C)CC(S(=O)(=O)Cc2ncon2)=NO1 [9-0005]
- herbicidal effect (index per standard of Table 21), Echinochloa curs-galli (L.) Beauv. Var. crus-galli [5]: 4
- herbicidal effect (index per standard of Table 21), Setaria viridis (L.) Beauv. [6]: 4
- herbicidal effect (index per standard of Table 21), Setaria viridis (L.) Beauv. [1]: 4
- herbicidal effect (index per standard of Table 21), Echinochloa curs-galli (L.) Beauv. Var. crus-galli [2]: 5
- Herbicidal effect index, Monochoria vaginalis (Burm. F.) Presl var. plantaginea (Roxb.) Solms-Laub. [3]: 5
- Herbicidal effect index, Echinochloa oryzicola Vasing [4]: 5

Structure (SMILES): CC1(C)CC(S(=O)(=O)Cc2csc(Cl)n2)=NO1 [9-0008]
- herbicidal effect (index per standard of Table 21), Echinochloa curs-galli (L.) Beauv. Var. crus-galli [5]: 4
- herbicidal effect (index per standard of Table 21), Setaria viridis (L.) Beauv. [6]: 4
- herbicidal effect (index per standard of Table 21), Setaria viridis (L.) Beauv. [1]: 5
- herbicidal effect (index per standard of Table 21), Echinochloa curs-galli (L.) Beauv. Var. crus-galli [2]: 5
- Herbicidal effect index, Monochoria vaginalis (Burm. F.) Presl var. plantaginea (Roxb.) Solms-Laub. [3]: 5
- Herbicidal effect index, Echinochloa oryzicola Vasing [4]: 5

Source: US7238689B2, “Isoxazoline derivative and herbicide comprising the same as active ingredient” (Ihara Chemical Industry Co., Ltd., priority 2001, dated 2007)
